# Reference: US20090181110A1, “Compositions from Garcinia as Aromatase Inhibitors for Breast Cancer Chemoprevention and Chemotherapy” (THE OHIO STATE UNIVERSITY RESEARCH FOUNDATION, priority 2007, published 2009)
# Where “and” joins values, the source holds several entries; their conditions need not be identical. Equal values may be shown once. Read-outs that look alike come from different tables or passages of the source.
# Assays:
# [1] = biological target: T1, aromatase (human placental microsomes) (Homo sapiens, UniProt P11511); assay: Noncellular, enzyme-based, microsomal aromatase bioassay; format: biochemical; settings: for Noncellular Bioassay PCA 20 μg/mL: percent control activity; for IC50: six concentrations 1-100 μM;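 as to all read-outs here: aromatase activity read as tritiated water release by scintillation counting after 15 min at 37 °C, relative to DMSO vehicle, with boiled microsomes giving background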
# T1 construct: Microsomes were obtained from the remaining tissue as described; from tissue; host or cells: human term placenta (microsomal fraction)
# T1 sequence (P11511 1-503): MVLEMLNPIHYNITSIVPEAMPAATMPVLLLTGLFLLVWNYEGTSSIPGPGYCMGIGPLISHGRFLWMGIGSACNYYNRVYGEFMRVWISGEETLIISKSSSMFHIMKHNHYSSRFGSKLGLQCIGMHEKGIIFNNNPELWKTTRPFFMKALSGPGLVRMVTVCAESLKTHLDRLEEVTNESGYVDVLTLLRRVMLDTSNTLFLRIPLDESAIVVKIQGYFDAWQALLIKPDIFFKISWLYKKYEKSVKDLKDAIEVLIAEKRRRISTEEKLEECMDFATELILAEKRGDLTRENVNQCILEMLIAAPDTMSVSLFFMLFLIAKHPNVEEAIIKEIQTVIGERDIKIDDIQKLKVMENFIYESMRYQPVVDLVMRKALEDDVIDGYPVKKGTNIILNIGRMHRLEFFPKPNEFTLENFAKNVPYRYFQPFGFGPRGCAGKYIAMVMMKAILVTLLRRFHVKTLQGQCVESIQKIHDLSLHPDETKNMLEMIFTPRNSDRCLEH
# [2] = Peroxynitrite scavenging activity, authentic ONOO−
# Description: (§1) ONOO-scavenging activity was measured by monitoring the oxidation of nonfluorescent DHR 123 to highly fluorescent rhodamine 123 using the modified method of Kooy et al. Briefly, DHR 123 (5 mM) in EtOH, purged with nitrogen, was stored at −80° C. as a stock solution. This solution was not exposed to light, prior to the study. The rhodamine buffer (pH 7.4) consisted of 50 mM sodium phosphate dibasic, 50 mM sodium phosphate monobasic, 90 mM sodium chloride, 5 mM potassium chloride, and 100 μM DTPA. The final concentration of DHR 123 was 5 μM. The buffer in this assay was prepared before use and placed on ice. The concentrations of compounds tested were in the range from 0.2 to 100 μM in 10% DMSO. The background and final fluorescent intensities were measured 5 min after treatment with and without the addition of authentic ONOO— in 0.3 N sodium hydroxide (10 μM) or SIN-1 in deionized water (10 μM). DHR 123 was oxidized rapidly by ONOO—, superoxide anion (O2.-), and nitric oxide (NO.). The fluorescence intensity of oxidized DHR 123 was measured with an LS55 luminescence spectrometer (Perkin-Elmer, Boston, Mass.) at the excitation and emission wavelengths of 480 and 530 nm, respectively. […] DL-Penicillamine was used as a positive control.
# [3] = Peroxynitrite scavenging activity, SIN-1-derived ONOO−
# Description: as §1
# SK-BR-3 cells = assay: SK-BR-3 cell-based cytotoxicity bioassay (MTT cell viability); set-up: species or system human; settings: 50 μM
# [4] = biological target: T2, aromatase in SK-BR-3 cells (Homo sapiens, UniProt P11511); assay: SK-BR-3 cell-based aromatase bioassay
# T2 construct: SK-BR-3 hormone-independent human breast cancer cells that overexpress aromatase; endogenous in cells; host or cells: SK-BR-3 human breast cancer cells
# T2 sequence (P11511 1-503): T1 sequence (P11511 1-503)
# [5] = tested on: DMBA-induced preneoplastic lesions; settings: background statement; cited from earlier work
# [6] = tested on: preneoplastic lesions (aberrant crypt foci); settings: recent work, background statement, cited from earlier work
# [7] = tested on: DMBA-induced preneoplastic lesions; assay: Mouse mammary organ culture (MMOC) assay; format: cell-based; settings: for percent inhibition of DMBA-induced preneoplastic lesions: 10 μg/mL
# Description: This assay was carried out according to an established protocol disclosed in the art. In brief, 4-week-old BALB/c female mice (Charles River, Wilmington, Mass.) were pretreated for 9 days with 1 μg of estradiol and 1 mg of progesterone. On the 10th day, the mice were sacrificed and the second pair of thoracic mammary glands was dissected on silk and transferred to 60 mm culture dishes containing 5 mL of Waymouth's 752/1 MB medium supplemented with streptomycin, penicillin, and L-glutamine. The glands were incubated for 10 days (37° C., 95% O2 and 5% CO2) in the presence of growth-promoting hormones (5 μg of insulin, 5 μg of prolactin, 1 μg of aldosterone, and 1 μg of hydrocortisone per milliliter of medium). Glands were exposed to 2 μg/mL 7,12-dimethylbenz[a]anthracene (DMBA) between 72 and 96 h. After their exposure, glands were rinsed and transferred to new dishes with fresh medium. The fully differentiated glands were then permitted to regress by withdrawing all hormones except insulin for 14 additional days. Test compounds were present in the medium during days 1-10 of culture; mammary glands were scored for the incidence of lesions.
# quinone reductase = assay: Quinone reductase (QR) induction assay in Hepa 1c1c7 cells; format: cell-based, murine
# Text: Thus compound 21 is a candidate for use as a cancer chemopreventive agent.
compound,measurement,setting,value
1-isomangostin [Compound 9],Noncellular Bioassay PCA 20 μg/mL,[1],52.6 PCA
8-deoxygartanin [Compound 4],Noncellular Bioassay PCA 20 μg/mL,[1],82.6 PCA
8-hydroxycudraxanthone G [Compound 1],"antioxidant activity, in words (authentic ONOO−)",[2],potent antioxidant activity
same,Noncellular Bioassay PCA 20 μg/mL,[1],55.1 PCA
same,"antioxidant activity, in words (SIN-1-derived ONOO−)",[3],potent antioxidant activity
COc1ccc([C@@H]2COc3c(ccc4c3C=CC(C)(C)O4)C2)c(O)c1 [4′O-methylglabridin],"aromatase inhibiting activity, in words",[1],show results that are supportive of these compounds having utility as aromatase inhibitors
"COc1c(O)cc2oc3cc(O)c(CC=C(C)C)c(O)c3c(=O)c2c1CCC(C)(C)O [Compound 6, garcinone D]",Cytotoxicity % cell surv.,SK-BR-3 cells,89.4%
same,"aromatase inhibiting activity, in words",[1],greatest aromatiase inhibiting activity
same,Noncellular Bioassay PCA 20 μg/mL,[1],10.0 PCA
same,IC50,[1],5.16 µM and 5.2 µM
same,Cell-based Bioassay PCA 50 μM,[4],50.7 PCA
"CC(C)=CCc1c(O)c(CC=C(C)C)c2oc3c(O)ccc(O)c3c(=O)c2c1O [Compound 8, gartanin]",Noncellular Bioassay PCA 20 μg/mL,[1],75.9 PCA
"COc1c(O)cc2oc3cc(O)c(CC=C(C)C)c(O)c3c(=O)c2c1CC=C(C)C [Compound 10, α-mangostin]","antioxidant activity, in words (authentic ONOO−)",[2],potent antioxidant activity
same,"alveolar duct formation in mouse mammary organ culture model, in words",[5],inhibit alveolar duct formation
same,Cytotoxicity % cell surv.,SK-BR-3 cells,18.4%
same,"aromatase inhibiting activity, in words",[1],greatest aromatiase inhibiting activity
same,Noncellular Bioassay PCA 20 μg/mL,[1],22.2 PCA
same,IC50,[1],20.7 µM
same,"inhibition of preneoplastic lesions in colon carcinogenesis model, in words",[6],suppress the carcinogen-induced formation of aberrant crypt foci
same,"inhibition of preneoplastic lesions in colon carcinogenesis model, in words",[6]; listed as crude α-mangostin (10) preparation,efficacy in inhibiting preneoplastic lesions
same,IC50 in dose-response MMOC assay,[7],1.0 µg/mL
same,percent inhibition of DMBA-induced preneoplastic lesions,[7],57.1%
same,IC50,"[7]; same value in μM, read-out: IC50 in dose-response MMOC assay",2.44 µM
same,Cell-based Bioassay PCA 50 μM,[4],59.4 PCA
same,"antioxidant activity, in words (SIN-1-derived ONOO−)",[3],potent antioxidant activity
"CC(C)=CCc1c(O)cc2oc3cc(O)c(O)c(CC=C(C)C)c3c(=O)c2c1O [Compound 11, γ-mangostin]","antioxidant activity, in words (authentic ONOO−)",[2],potent antioxidant activity
same,"aromatase inhibiting activity, in words",[1],greatest aromatiase inhibiting activity
same,Noncellular Bioassay PCA 20 μg/mL,[1],4.7 PCA
same,IC50,[1],6.88 µM and 6.9 µM
same,percent inhibition of DMBA-induced preneoplastic lesions,[7],42.9%
same,IC50,[4],4.97 ± 1.9 µM
same,Cell-based Bioassay PCA 50 μM,[4],−0.5 PCA
same,"antioxidant activity, in words (SIN-1-derived ONOO−)",[3],potent antioxidant activity
"CC(C)=CCC/C(C)=C/Cc1c(O)cc2oc3c(O)cccc3c(=O)c2c1O [Compound 12, mangostinone]",Noncellular Bioassay PCA 20 μg/mL,[1],78.8 PCA
"CC(C)=CCC/C(C)=C/Cc1c(O)cc2oc3c(O)ccc(O)c3c(=O)c2c1O [Compound 13, smeathxanthone A]","antioxidant activity, in words (authentic ONOO−)",[2],potent antioxidant activity
same,Noncellular Bioassay PCA 20 μg/mL,[1],80.8 PCA
same,"antioxidant activity, in words (SIN-1-derived ONOO−)",[3],potent antioxidant activity
"CC(C)=CCc1c(O)cc2oc3c(CC=C(C)C)c(O)c4c(c3c(=O)c2c1O)C=CC(C)(C)O4 [Compound 14, tovophyllin A]",Noncellular Bioassay PCA 20 μg/mL,[1],74.7 PCA
"CC(C)=CCc1c(O)cc2oc3ccc4c(c3c(=O)c2c1O)C(O)C(C(C)(C)O)O4 (stereo not drawn) [Compound 21, 1,2-dihydro-1,8,10-trihydroxy-2-(2-hydroxypropan-2-yl)-9-(3-methylbut-2-enyl)furo[3,2-a]xanthen-11-one]",CD (concentration required to double QR induction activity),quinone reductase,1.3 µg/mL
"CC(C)=CCc1c(O)ccc2oc3cc4c(c(O)c3c(=O)c12)CC(C(C)(C)O)O4 (stereo not drawn) [Compound 22, 2,3-dihydro-4,7-dihydroxy-2-(2-hydroxypropan-2-yl)-6-(3-methylbut-2-enyl)furo[3,2-b]xanthen-5-one]",CD (concentration required to double QR induction activity),quinone reductase,2.2 µg/mL
"CC(C)=CCc1c(O)cc2oc3ccc(O)c(CC=C(C)C)c3c(=O)c2c1O [Compound 23, 1,3,7-trihydroxy-2,8-di-(3-methylbut-2-enyl)xanthone]",CD (concentration required to double QR induction activity),quinone reductase,0.68 µg/mL
"COc1c(O)cc2oc3cc4c(c(O)c3c(=O)c2c1CC=C(C)C)C=CC(C)(C)O4 [Compound 24, mangostanin]",CD (concentration required to double QR induction activity),quinone reductase,0.95 µg/mL
"N#Cc1ccc(C(c2ccc(C#N)cc2)n2cncn2)cc1 [LET, Letrozole, reference compound]",Cell-based Bioassay PCA (positive control),[4]; 10 nM letrozole,7.4 PCA
"O=C(/C=C/c1ccc(O)cc1)c1ccc(O)cc1O [isoliquiritigenin, reference compound]",CD (concentration required to double QR induction activity),quinone reductase,1.1 µg/mL
CC(C)=CCc1cc(/C=C/C(=O)c2ccc3c(c2O)C=CC(C)(C)O3)ccc1O [paratocarpin B],"aromatase inhibiting activity, in words",[1],show results that are supportive of these compounds having utility as aromatase inhibitors
cudraxanthone G [Compound 3],Noncellular Bioassay PCA 20 μg/mL,[1],57.8 PCA
garcinone E [Compound 7],Cytotoxicity % cell surv.,SK-BR-3 cells,52.3%
same,"aromatase inhibiting activity, in words",[1],greatest aromatiase inhibiting activity
same,Noncellular Bioassay PCA 20 μg/mL,[1],23.9 PCA
same,IC50,[1],25.1 µM
same,Cell-based Bioassay PCA 50 μM,[4],32.3 PCA
